# Measurements reported in patent US10681909B2, “Herbicidal triazoles” (FMC Corporation, priority 2014, dated 2020).
# How the values were obtained:
# sedge, umbrella = assay: Test B flooded paddy test; type: in vivo, Cyperus difformis; settings: 250 g ai/ha, applied to paddy water at 2-leaf stage, visual rating after 13 to 15 d, scale 0 (no effect) to 100 (complete control)
# Method in brief: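 Pots were flooded to 3 cm above the soil at treatment, and compounds were applied directly into the paddy water. That depth was held throughout. After 13 to 15 d in a greenhouse, plants were rated visually against untreated controls.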
# foxtail, giant [1] = assay: Test A postemergence; type: in vivo, Setaria faberii; settings: 0 to 100 scale (0 no effect, 100 complete control), approx. 10 d
# Method in brief: (§1)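 Test chemicals, formulated in a surfactant-containing non-phytotoxic solvent mixture, are applied either as a directed soil spray to newly planted seeds or as a postemergence application to plants at the one- to two-leaf stage (2–10 cm). All plants grow in a loam soil and sand blend.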
# corn = assay: Test C postemergence; type: in vivo, Zea mays
# Method in brief: (§2)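 Seeds were planted in loam soil plus sand and sprayed preemergence. In parallel, potted plants in a peat-based medium were sprayed postemergence at 2 to 18 cm (1- to 4-leaf stage). Compounds were formulated in non-phytotoxic solvent with surfactant.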
# galium = assay: Test C postemergence; type: in vivo, Galium aparine
# Method in brief: as §2
# barnyardgrass [2] = assay: Test C postemergence; type: in vivo, Echinochloa crus-galli
# Method in brief: as §2
# kochia = assay: Test C postemergence; type: in vivo, Kochia scoparia
# Method in brief: as §2
# johnsongrass = assay: Test C postemergence; type: in vivo, Sorghum halepense
# Method in brief: as §2
# barnyardgrass [3] = assay: Test A postemergence; type: in vivo, Echinochloa crus-galli; settings: 0 to 100 scale (0 no effect, 100 complete control), approx. 10 d
# Method in brief: as §1
# velvetleaf = assay: Test C postemergence; type: in vivo, Abutilon theophrasti
# Method in brief: as §2
# pigweed = assay: Test A postemergence; type: in vivo, Amaranthus retroflexus; settings: 0 to 100 scale (0 no effect, 100 complete control), approx. 10 d
# Method in brief: as §1
# ryegrass, Italian = assay: Test C postemergence; type: in vivo, Lolium multiflorum
# Method in brief: as §2
# blackgrass = assay: Test C postemergence; type: in vivo, Alopecurus myosuroides
# Method in brief: as §2
# barnyardgrass [4] = assay: Test A preemergence; type: in vivo, Echinochloa crus-galli; settings: 0 to 100 scale (0 no effect, 100 complete control)
# Method in brief: as §1
# nutsedge, yellow = assay: Test C postemergence; type: in vivo, Cyperus esculentus
# Method in brief: as §2
# morningglory = assay: Test C postemergence; type: in vivo, Ipomoea coccinea
# Method in brief: as §2
# crabgrass, large = assay: Test C postemergence; type: in vivo, Digitaria sanguinalis
# Method in brief: as §2
# wheat = assay: Test A postemergence; type: in vivo, Triticum aestivum; settings: 0 to 100 scale (0 no effect, 100 complete control), approx. 10 d
# Method in brief: as §1
# waterhemp = assay: Test C postemergence; type: in vivo, Amaranthus rudis
# Method in brief: as §2
# oilseed rape = assay: Test C postemergence; type: in vivo, Brassica napus
# Method in brief: as §2
# foxtail, giant [5] = assay: Test A preemergence; type: in vivo, Setaria faberii; settings: 0 to 100 scale (0 no effect, 100 complete control)
# Method in brief: as §1
smiles,measurement,setting,value
COc1nc(-c2ccc(Cl)cc2)nn1Cc1ccnc(C(F)(F)F)c1 [Compound 28],"Plant response rating, Sedge, Umbrella, Flood","sedge, umbrella",100
same,"Plant response rating, Foxtail, Giant","foxtail, giant [1]; 125 g ai/ha",70
same,"Plant response rating, Foxtail, Giant","foxtail, giant [1]; 500 g ai/ha",90
same,Plant response rating (scale of 0 to 100 where 0 is no effect and 100 is complete control),corn; 31 g ai/ha,5
same,Plant response rating (scale of 0 to 100 where 0 is no effect and 100 is complete control),corn; 62 g ai/ha,10
same,Plant response rating (scale of 0 to 100 where 0 is no effect and 100 is complete control),corn; 125 g ai/ha,15
same,Plant response rating (scale of 0 to 100 where 0 is no effect and 100 is complete control),corn; 250 g ai/ha,15
same,Plant response rating (scale of 0 to 100 where 0 is no effect and 100 is complete control),galium; 31 g ai/ha,85
same,Plant response rating (scale of 0 to 100 where 0 is no effect and 100 is complete control),galium; 62 g ai/ha,90
same,Plant response rating (scale of 0 to 100 where 0 is no effect and 100 is complete control),galium; 125 g ai/ha,90
same,Plant response rating (scale of 0 to 100 where 0 is no effect and 100 is complete control),galium; 250 g ai/ha,95
same,Plant response rating (scale of 0 to 100 where 0 is no effect and 100 is complete control),barnyardgrass [2]; 31 g ai/ha,15
same,Plant response rating (scale of 0 to 100 where 0 is no effect and 100 is complete control),barnyardgrass [2]; 62 g ai/ha,15
same,Plant response rating (scale of 0 to 100 where 0 is no effect and 100 is complete control),barnyardgrass [2]; 125 g ai/ha,15
same,Plant response rating (scale of 0 to 100 where 0 is no effect and 100 is complete control),barnyardgrass [2]; 250 g ai/ha,25
same,Plant response rating (scale of 0 to 100 where 0 is no effect and 100 is complete control),kochia; 31 g ai/ha,95
same,Plant response rating (scale of 0 to 100 where 0 is no effect and 100 is complete control),kochia; 62 g ai/ha,100
same,Plant response rating (scale of 0 to 100 where 0 is no effect and 100 is complete control),kochia; 125 g ai/ha,100
same,Plant response rating (scale of 0 to 100 where 0 is no effect and 100 is complete control),kochia; 250 g ai/ha,100
same,Plant response rating (scale of 0 to 100 where 0 is no effect and 100 is complete control),johnsongrass; 62 g ai/ha,5
same,Plant response rating (scale of 0 to 100 where 0 is no effect and 100 is complete control),johnsongrass; 125 g ai/ha,10
same,Plant response rating (scale of 0 to 100 where 0 is no effect and 100 is complete control),johnsongrass; 250 g ai/ha,85
same,"Plant response rating, Barnyardgrass",barnyardgrass [3]; 125 g ai/ha,30
same,"Plant response rating, Barnyardgrass",barnyardgrass [3]; 500 g ai/ha,80
same,Plant response rating (scale of 0 to 100 where 0 is no effect and 100 is complete control),velvetleaf; 31 g ai/ha,60
same,Plant response rating (scale of 0 to 100 where 0 is no effect and 100 is complete control),velvetleaf; 62 g ai/ha,60
same,Plant response rating (scale of 0 to 100 where 0 is no effect and 100 is complete control),velvetleaf; 125 g ai/ha,65
same,Plant response rating (scale of 0 to 100 where 0 is no effect and 100 is complete control),velvetleaf; 250 g ai/ha,80
same,"Plant response rating, Pigweed",pigweed; 125 g ai/ha,100
same,"Plant response rating, Pigweed",pigweed; 500 g ai/ha,100
same,Plant response rating (scale of 0 to 100 where 0 is no effect and 100 is complete control),"ryegrass, Italian; 31 g ai/ha",5
same,Plant response rating (scale of 0 to 100 where 0 is no effect and 100 is complete control),"ryegrass, Italian; 62 g ai/ha",5
same,Plant response rating (scale of 0 to 100 where 0 is no effect and 100 is complete control),"ryegrass, Italian; 125 g ai/ha",10
same,Plant response rating (scale of 0 to 100 where 0 is no effect and 100 is complete control),"ryegrass, Italian; 250 g ai/ha",15
same,Plant response rating (scale of 0 to 100 where 0 is no effect and 100 is complete control),blackgrass; 31 g ai/ha,10
same,Plant response rating (scale of 0 to 100 where 0 is no effect and 100 is complete control),blackgrass; 62 g ai/ha,15
same,Plant response rating (scale of 0 to 100 where 0 is no effect and 100 is complete control),blackgrass; 125 g ai/ha,15
same,Plant response rating (scale of 0 to 100 where 0 is no effect and 100 is complete control),blackgrass; 250 g ai/ha,25
same,"Plant response rating, Barnyardgrass",barnyardgrass [4]; 125 g ai/ha,30
same,"Plant response rating, Barnyardgrass","barnyardgrass [4]; 500 g ai/ha, approx. 10 d",90
same,Plant response rating (scale of 0 to 100 where 0 is no effect and 100 is complete control),"nutsedge, yellow; 31 g ai/ha",5
same,Plant response rating (scale of 0 to 100 where 0 is no effect and 100 is complete control),"nutsedge, yellow; 62 g ai/ha",5
same,Plant response rating (scale of 0 to 100 where 0 is no effect and 100 is complete control),"nutsedge, yellow; 125 g ai/ha",15
same,Plant response rating (scale of 0 to 100 where 0 is no effect and 100 is complete control),"nutsedge, yellow; 250 g ai/ha",10
same,Plant response rating (scale of 0 to 100 where 0 is no effect and 100 is complete control),morningglory; 31 g ai/ha,70
same,Plant response rating (scale of 0 to 100 where 0 is no effect and 100 is complete control),morningglory; 62 g ai/ha,60
same,Plant response rating (scale of 0 to 100 where 0 is no effect and 100 is complete control),morningglory; 125 g ai/ha,65
same,Plant response rating (scale of 0 to 100 where 0 is no effect and 100 is complete control),morningglory; 250 g ai/ha,100
same,Plant response rating (scale of 0 to 100 where 0 is no effect and 100 is complete control),"crabgrass, large; 31 g ai/ha",10
same,Plant response rating (scale of 0 to 100 where 0 is no effect and 100 is complete control),"crabgrass, large; 62 g ai/ha",10
same,Plant response rating (scale of 0 to 100 where 0 is no effect and 100 is complete control),"crabgrass, large; 125 g ai/ha",10
same,Plant response rating (scale of 0 to 100 where 0 is no effect and 100 is complete control),"crabgrass, large; 250 g ai/ha",30
same,"Plant response rating, Wheat",wheat; 125 g ai/ha,0
same,"Plant response rating, Wheat",wheat; 500 g ai/ha,10
same,Plant response rating (scale of 0 to 100 where 0 is no effect and 100 is complete control),waterhemp; 31 g ai/ha,98
same,Plant response rating (scale of 0 to 100 where 0 is no effect and 100 is complete control),waterhemp; 62 g ai/ha,95
same,Plant response rating (scale of 0 to 100 where 0 is no effect and 100 is complete control),waterhemp; 125 g ai/ha,95
same,Plant response rating (scale of 0 to 100 where 0 is no effect and 100 is complete control),waterhemp; 250 g ai/ha,98
same,Plant response rating (scale of 0 to 100 where 0 is no effect and 100 is complete control),"oilseed rape; Oilsee Rape, 250 g ai/ha",95
same,Plant response rating (scale of 0 to 100 where 0 is no effect and 100 is complete control),"oilseed rape; Oilseed Rape, 31 g ai/ha",25
same,Plant response rating (scale of 0 to 100 where 0 is no effect and 100 is complete control),"oilseed rape; Oilseed Rape, 62 g ai/ha",55
same,Plant response rating (scale of 0 to 100 where 0 is no effect and 100 is complete control),"oilseed rape; Oilseed Rape, 125 g ai/ha",70
same,"Plant response rating, Foxtail, Giant","foxtail, giant [5]; 125 g ai/ha",100
same,"Plant response rating, Foxtail, Giant","foxtail, giant [5]; 500 g ai/ha, approx. 10 d",100
